Measured values reported in patent US10472347B2, “Aminopyrazine compounds with A2A antagonist properties” (Merck Sharp & Dohme Corp., priority 2014, dated 2019).

Biological target: T1, human A2a receptor (Homo sapiens, UniProt P29274)
T1 construct: purchased Perkin-Elmer RBHA2AM400UA; host or cells: HEK293 cells (membranes)
Experiment: A2a competition binding assay, Scintillation Proximity technology
Conditions: membranes from HEK293 cells expressing human A2a receptor; Ki by Cheng-Prusoff equation
How it was run: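 Membranes from HEK293 cells expressing human A2a, adenosine deaminase-treated, incubated 1 h at room temperature with compound (3000 to 0.15 nM) and 0.5 nM tritiated pyrazolotriazolopyrimidine radioligand on WGA SPA beads in Ca/Mg-free PBS + 10 mM MgCl2. Non-specific binding with 1 μM CGS15943; Ki by Cheng-Prusoff.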

T1 sequence (P29274 whole entry): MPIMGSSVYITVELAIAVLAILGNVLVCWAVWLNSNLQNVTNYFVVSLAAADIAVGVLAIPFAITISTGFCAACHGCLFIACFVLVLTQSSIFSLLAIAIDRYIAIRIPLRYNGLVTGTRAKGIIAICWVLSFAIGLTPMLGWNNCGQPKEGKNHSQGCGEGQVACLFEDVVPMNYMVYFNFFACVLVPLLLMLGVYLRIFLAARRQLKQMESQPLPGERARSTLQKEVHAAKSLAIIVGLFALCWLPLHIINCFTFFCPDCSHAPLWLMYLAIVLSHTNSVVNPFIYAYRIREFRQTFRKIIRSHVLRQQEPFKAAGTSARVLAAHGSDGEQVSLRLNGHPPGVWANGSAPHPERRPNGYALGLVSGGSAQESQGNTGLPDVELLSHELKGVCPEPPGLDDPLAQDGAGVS

Row | SMILES | Ki [nM]
1 | Cc1nc(C(=O)NCC(=O)N2CCC2)c(N)nc1-c1ncco1 [Ex-68, 3-amino-N-(2-azetidin-1-yl-2-oxoethyl)-6-methyl-5-(1,3-oxazol-2-yl)pyrazine-2-carboxamide] | 27.3
2 | Cc1nc(C(=O)NCc2cncnc2)c(N)nc1-c1ncco1 [Ex-69, 3-amino-6-methyl-5-(1,3-oxazol-2-yl)-N-(pyrimidin-5-ylmethyl)pyrazine-2-carboxamide] | 56.5
3 | Cc1ccc(CNC(=O)c2nc(C)c(-c3ncco3)nc2N)c(C)n1 [Ex-70, 3-amino-N-[(2,6-dimethylpyridin-3-yl)methyl]-6-methyl-5-(1,3-oxazol-2-yl)pyrazine-2-carboxamide] | 41
4 | Cc1nc(C)c(CNC(=O)c2nc(C)c(-c3ncco3)nc2N)s1 [Ex-71, 3-amino-N-[(2,4-dimethyl-1,3-thiazol-5-yl)methyl]-6-methyl-5-(1,3-oxazol-2-yl)pyrazine-2-carboxamide] | 23.8
5 | Cc1nc(C(=O)NCc2ncccc2Cl)c(N)nc1-c1ncco1 [Ex-72, 3-amino-N-[(3-chloropyridin-2-yl)methyl]-6-methyl-5-(1,3-oxazol-2-yl)pyrazine-2-carboxamide] | 0.287
6 | Cc1cnc(F)c(CNC(=O)c2nc(C)c(-c3ncco3)nc2N)c1 [Ex-73, 3-amino-N-[(2-fluoro-5-methylpyridin-3-yl)methyl]-6-methyl-5-(1,3-oxazol-2-yl)pyrazine-2-carboxamide] | 4.64
7 | Cc1nc(C(=O)NCc2ncc(Cl)cc2F)c(N)nc1-c1ncco1 [Ex-74, 3-amino-N-[(5-chloro-3-fluoropyridin-2-yl)methyl]-6-methyl-5-(1,3-oxazol-2-yl)pyrazine-2-carboxamide] | 2.27
8 | Cc1nc(C(=O)NCc2cc(C(F)F)nc(C(F)F)c2)c(N)nc1-c1ncco1 [Ex-75, 3-amino-N-{[2,6-bis(difluoromethyl)pyridin-4-yl]methyl}-6-methyl-5-(1,3-oxazol-2-yl)pyrazine-2-carboxamide] | 40.4
9 | Cc1nc(C(=O)NCc2ccncn2)c(N)nc1-c1ncco1 [Ex-76, 3-amino-6-methyl-5-(1,3-oxazol-2-yl)-N-(pyrimidin-4-ylmethyl)pyrazine-2-carboxamide] | 50.1
10 | Cc1cn(C)nc1CNC(=O)c1nc(C)c(-c2ncco2)nc1N [Ex-77, 3-amino-N-[(1,4-dimethyl-1H-pyrazol-3-yl)methyl]-6-methyl-5-(1,3-oxazol-2-yl)pyrazine-2-carboxamide] | 0.828
11 | Cc1nc(C(=O)NCc2cnn(C)c2C)c(N)nc1-c1ncco1 [Ex-78, 3-amino-N-[(1,5-dimethyl-1H-pyrazol-4-yl)methyl]-6-methyl-5-(1,3-oxazol-2-yl)pyrazine-2-carboxamide] | 5.72
12 | CCn1ccnc1CNC(=O)c1nc(C)c(-c2ncco2)nc1N [Ex-79, 3-amino-N-[(1-ethyl-1H-imidazol-2-yl)methyl]-6-methyl-5-(1,3-oxazol-2-yl)pyrazine-2-carboxamide] | 0.34
13 | COc1ccc(C)c(CNC(=O)c2nc(C)c(-c3ncco3)nc2N)n1 [Ex-80, 3-amino-N-[(6-methoxy-3-methylpyridin-2-yl)methyl]-6-methyl-5-(1,3-oxazol-2-yl)pyrazine-2-carboxamide] | 1.59
14 | Cc1cc(C)nc(CNC(=O)c2nc(C)c(-c3ncco3)nc2N)n1 [Ex-81, 3-amino-N-[(4,6-dimethylpyrimidin-2-yl)methyl]-6-methyl-5-(1,3-oxazol-2-yl)pyrazine-2-carboxamide] | 2.8
15 | Cc1nc(C(=O)NC2CCC(F)(F)CC2)c(N)nc1-c1ncco1 [Ex-83, 3-amino-N-(4,4-difluorocyclohexyl)-6-methyl-5-(1,3-oxazol-2-yl)pyrazine-2-carboxamide] | 3.18
16 | Cc1nc(C(=O)NCc2cccc(C(C)C)n2)c(N)nc1-c1ncco1 [Ex-85, 3-amino-6-methyl-N-{[6-(1-methylethyl)pyridin-2-yl]methyl}-5-(1,3-oxazol-2-yl)pyrazine-2-carboxamide] | 0.7
